{"source": "patent US10265303B2", "about": "“Hyperphenylalaninemia and treatments thereof” (BERGEN TEKNOLOGIOVERFØRING AS, priority 2015, dated 2019)", "key": {"R68S-PAH": {"target": "R68S-PAH (Homo sapiens, UniProt P00439, R68S)", "sequence (P00439 whole entry R68S)": "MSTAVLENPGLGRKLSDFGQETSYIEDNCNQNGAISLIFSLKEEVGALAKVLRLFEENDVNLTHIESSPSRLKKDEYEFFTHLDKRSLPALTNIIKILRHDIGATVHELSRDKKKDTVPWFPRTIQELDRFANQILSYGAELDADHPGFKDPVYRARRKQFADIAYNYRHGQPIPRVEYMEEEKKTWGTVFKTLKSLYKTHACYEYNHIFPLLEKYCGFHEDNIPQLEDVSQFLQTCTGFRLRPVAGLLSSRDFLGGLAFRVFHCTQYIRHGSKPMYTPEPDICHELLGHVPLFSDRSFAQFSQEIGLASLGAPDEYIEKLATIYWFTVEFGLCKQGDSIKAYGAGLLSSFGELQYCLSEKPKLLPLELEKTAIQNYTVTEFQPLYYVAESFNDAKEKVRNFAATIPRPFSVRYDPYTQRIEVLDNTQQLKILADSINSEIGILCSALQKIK", "details": "200 μM, 24 h, 1% DMSO", "experimental": "A similar assay was used to measure PAH activity in cells lysates using 1 mM L-Phe and 200 μM BH4 with 10 min reactions and about 20-90 μg of total protein. Free amino acids and contaminants of low molecular weight were previously removed from the extracts using Zebra Desalt Spin columns (Pierce Biotechnology).\nFor transient expression of WT and mutant PAH, HEK293 EBNA (Epstein-Barr virus) cells, with low endogenous PAH expression, were grown as above. Cells were grown for 19 h, when they were transfected transiently transfected with […] of pcDNA3-PAH vector (WT or mutant PAH constructs R261Q, R252W, I65T and R68S) using the Lipofectamine system (Life Technologies™) as described by the manufacturer. Compound 53, with and without BH2 (200 μM) was added after 5 h of transfection at 200 μM concentration in 1% DMSO, and further incubated for 24 h, at which time the cells were harvested and stored at −80° C. In all cases a parallel negative control with only 1% DMSO was included. Cell lysates were prepared as indicated above.\nWestern blot analyses were performed on either cell extracts from permanently expressing or transiently transfected HEK293 cell lysates after SDS-PAGE (10% acrylamide) with 5-10 μg total protein in each lane. […] Neomycin phosphotransferase II was used as a marker of the plasmid transfection efficiency, and GAPDH was used as loading controls. […]"}, "I65T-PAH": {"target": "T1, I65T-PAH (Homo sapiens, UniProt P00439, I65T)", "T1 construct": "expressed in transfected cells; host or cells: HEK293 EBNA, transient, pcDNA3-PAH", "T1 sequence (P00439 1-452 I65T)": "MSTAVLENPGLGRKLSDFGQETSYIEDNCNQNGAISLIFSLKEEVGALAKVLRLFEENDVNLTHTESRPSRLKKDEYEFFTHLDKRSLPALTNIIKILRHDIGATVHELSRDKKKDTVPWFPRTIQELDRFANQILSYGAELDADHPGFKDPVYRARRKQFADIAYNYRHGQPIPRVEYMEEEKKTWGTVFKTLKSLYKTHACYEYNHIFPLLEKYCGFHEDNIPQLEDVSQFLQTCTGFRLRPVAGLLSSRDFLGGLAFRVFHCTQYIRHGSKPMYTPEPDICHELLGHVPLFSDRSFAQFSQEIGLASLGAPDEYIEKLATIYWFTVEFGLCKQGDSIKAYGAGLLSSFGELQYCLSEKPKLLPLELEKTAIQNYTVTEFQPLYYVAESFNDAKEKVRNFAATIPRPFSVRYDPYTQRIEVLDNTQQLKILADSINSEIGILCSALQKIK", "assay": "PAH protein level and activity in HEK293 EBNA cells transiently expressing PKU mutant I65T", "format": "cell-based", "details": "24 h", "experimental": "Cell lysates were prepared as indicated above."}, "hPAH": {"target": "T2, hPAH (Homo sapiens, UniProt P00439)", "T2 sequence (P00439 1-452)": "T1 sequence (P00439 1-452 I65T) with T65I", "assay": "SPR screening and affinity determination on immobilized hPAH (Biacore T200)", "format": "binding", "details": "SPR, 25° C., compound 0-500 μM in 5% DMSO; affinities said to be overestimated, relative KD reliable; read-out: KD (μM) ± SER", "experimental": "For detailed determination of binding affinity of Compound 53 and derivatives (FIG. 4) SPR was performed on a Biacore T200 (GE Healthcare Life Sciences) at a temperature of 25° C. A hPAH solution at 0.08 μg/μl in a final volume of 200 μl in acetate buffer pH 5.0 was immobilized onto series S sensor chip CM5 by the standard amine coupling procedure at a flow rate of 30 μl/min and PBS-P+ buffer as running buffer aiming for RU 20000. After the coupling reaction the surface of the sensor chip was washed to eliminate unbound species with HBS buffer (0.01 M NaHepes pH 7.4, 0.15 M NaCI) at steady flow of 20 μl/min for 1 hour until the baseline drift was around 0.05 RU/s; note that an early injection of 40 μl dithiothreitol (DTT) 10 mM in HBS allowed for this reduced washing time.\nFor the screening, compounds were assayed at a concentration of 200 μM, with 5% DMSO in duplicates, including negative controls with 5% DMSO, positive controls, with 200 μM BH2 and solvent correction was also performed. For KD calculations, a compound concentration 0-500 μM (in 5% DMSO) were applied at otherwise analogous experimental design and analyses were performed using Biacore T200 Evaluation Software, version 2.0 (GE Healthcare Life Sciences).\nAll the responses from the compounds of the screening were subjected to blank subtraction (negative control 5% DMSO), molecular weight adjustment and solvent correction to account for differences in bulk response. Next a cut-off value for the screening was selected based on the response of the positive control of our experiments: RU BH2+3*SD (2.88+3*1.79=8.27). In this manner, from the 11 derivatives of Compound 53 tested (see FIG. 4) we weeded out those compounds with a lower response than 8.27, namely #53.2, #53.9 and #53.11.\nIn addition and for the rest of the compounds which continued our workflow, binding affinities were determined and the results are shown in the following table. The selected conditions to measure affinity are selected for high throughput measurements, but the affinities are overestimated though the relative KD for the different compounds are reliable."}}, "note": "Residue numbers refer to the chain shown, from its start."}
{"smiles": "COc1cc(Cc2cnc(N)nc2N)cc(OC)c1OC", "note": "[c53, trimethoprim]", "values": [{"measurement": "PAH activity, mutant R68S", "setting": "R68S-PAH", "value": "An effect"}, {"measurement": "protein and activity, mutant I65T, Compound 53 and BH2 together", "setting": "I65T-PAH; 200 μM each", "value": "trends for additive effects"}, {"measurement": "PAH activity, mutant I65T", "setting": "I65T-PAH; 200 μM, 1% DMSO", "value": "greatly increased"}, {"measurement": "hPAH protein level, mutant I65T", "setting": "I65T-PAH; 200 μM, 1% DMSO", "value": "greatly increased"}, {"measurement": "Kd", "setting": "hPAH", "value": "58.5 ± 35.8", "unit": "µM"}]}
